Measured values: patent publication US20240358773A1, “Parabacteroides Goldsteinii to Treat or Prevent Inflammatory and AutoImmune Diseases” (Joslin Diabetes Center, priority 2023, published 2024)
Blank lines part the entries; values can stand above or below the molecule they belong to.

What was measured:
class III PI3K = class III PI3K (Mus musculus, UniProt Q6PF93); assay: Inhibition of autophagosome formation in EV-treated BMDCs, IL-10
[1] = tested on: colonic lamina propria (cLP) cells; assay: A2a blockade in antibiotic-pretreated mice given live or killed ASF519, flow cytometry of colonic lamina propria cells; type: in vivo, mouse; settings: daily i.p. injection
[2] = tested on: fusion of autophagosomes with lysosomes; assay: Inhibition of autophagosome-lysosome fusion in EV-treated BMDCs, IL-10

Sequence of class III PI3K (Q6PF93 whole entry): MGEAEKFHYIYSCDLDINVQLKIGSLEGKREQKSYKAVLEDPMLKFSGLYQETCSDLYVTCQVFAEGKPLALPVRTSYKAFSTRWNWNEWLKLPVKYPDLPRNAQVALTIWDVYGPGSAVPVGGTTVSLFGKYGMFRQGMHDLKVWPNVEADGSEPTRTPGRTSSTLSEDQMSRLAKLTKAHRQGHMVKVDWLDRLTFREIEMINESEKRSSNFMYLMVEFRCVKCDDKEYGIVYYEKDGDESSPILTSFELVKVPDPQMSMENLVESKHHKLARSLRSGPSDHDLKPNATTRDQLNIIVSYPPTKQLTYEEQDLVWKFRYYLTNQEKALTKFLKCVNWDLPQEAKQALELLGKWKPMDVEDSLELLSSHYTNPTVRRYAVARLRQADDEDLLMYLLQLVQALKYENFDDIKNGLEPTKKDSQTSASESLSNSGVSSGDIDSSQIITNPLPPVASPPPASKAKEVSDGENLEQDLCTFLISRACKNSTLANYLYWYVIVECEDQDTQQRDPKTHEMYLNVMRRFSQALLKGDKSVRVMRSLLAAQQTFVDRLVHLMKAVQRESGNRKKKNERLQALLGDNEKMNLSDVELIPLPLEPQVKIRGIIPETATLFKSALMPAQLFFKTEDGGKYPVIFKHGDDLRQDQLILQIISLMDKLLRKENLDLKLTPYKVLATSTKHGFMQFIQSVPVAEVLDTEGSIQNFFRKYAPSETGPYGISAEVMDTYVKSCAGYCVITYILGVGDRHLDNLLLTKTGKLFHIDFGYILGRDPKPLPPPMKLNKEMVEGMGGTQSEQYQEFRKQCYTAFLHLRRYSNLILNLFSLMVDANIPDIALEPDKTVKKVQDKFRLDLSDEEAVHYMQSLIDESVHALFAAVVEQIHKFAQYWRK
Sequence of class III PI3K (Q8VD65 whole entry partner): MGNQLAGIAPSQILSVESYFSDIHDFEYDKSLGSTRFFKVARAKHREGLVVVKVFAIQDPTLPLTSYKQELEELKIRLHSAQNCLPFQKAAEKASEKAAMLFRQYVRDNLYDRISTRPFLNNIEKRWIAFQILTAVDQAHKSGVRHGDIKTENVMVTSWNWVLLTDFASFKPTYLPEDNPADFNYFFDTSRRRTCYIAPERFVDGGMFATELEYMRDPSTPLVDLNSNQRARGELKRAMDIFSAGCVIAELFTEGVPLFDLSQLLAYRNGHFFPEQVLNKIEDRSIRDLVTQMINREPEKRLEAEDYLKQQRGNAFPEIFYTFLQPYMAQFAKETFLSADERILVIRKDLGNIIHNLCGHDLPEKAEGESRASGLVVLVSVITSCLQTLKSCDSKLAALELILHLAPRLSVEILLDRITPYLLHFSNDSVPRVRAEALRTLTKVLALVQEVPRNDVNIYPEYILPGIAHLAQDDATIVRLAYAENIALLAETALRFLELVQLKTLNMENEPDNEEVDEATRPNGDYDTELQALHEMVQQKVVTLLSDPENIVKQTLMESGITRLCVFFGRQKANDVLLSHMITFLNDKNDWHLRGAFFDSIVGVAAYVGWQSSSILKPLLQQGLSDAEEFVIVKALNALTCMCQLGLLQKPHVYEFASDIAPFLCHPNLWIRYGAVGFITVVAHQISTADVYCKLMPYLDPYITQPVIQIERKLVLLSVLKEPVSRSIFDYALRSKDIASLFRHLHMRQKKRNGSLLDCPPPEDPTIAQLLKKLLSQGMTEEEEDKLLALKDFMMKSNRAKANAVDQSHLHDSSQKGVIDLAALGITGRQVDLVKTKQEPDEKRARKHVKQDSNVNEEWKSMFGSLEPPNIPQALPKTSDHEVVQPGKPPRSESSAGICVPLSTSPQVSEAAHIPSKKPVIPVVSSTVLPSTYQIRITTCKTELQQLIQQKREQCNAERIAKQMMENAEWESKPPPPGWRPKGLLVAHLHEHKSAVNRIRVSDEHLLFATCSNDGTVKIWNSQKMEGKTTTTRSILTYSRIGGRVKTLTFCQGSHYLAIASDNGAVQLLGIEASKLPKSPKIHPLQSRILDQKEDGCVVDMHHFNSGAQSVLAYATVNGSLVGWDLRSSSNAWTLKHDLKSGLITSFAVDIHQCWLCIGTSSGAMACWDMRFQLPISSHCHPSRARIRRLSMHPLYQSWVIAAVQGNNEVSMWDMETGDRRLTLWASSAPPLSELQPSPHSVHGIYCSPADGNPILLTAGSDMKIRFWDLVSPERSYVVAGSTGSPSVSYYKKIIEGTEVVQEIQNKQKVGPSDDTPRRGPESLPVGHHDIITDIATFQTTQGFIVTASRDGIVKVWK
Sequence of class III PI3K (O88597 whole entry partner): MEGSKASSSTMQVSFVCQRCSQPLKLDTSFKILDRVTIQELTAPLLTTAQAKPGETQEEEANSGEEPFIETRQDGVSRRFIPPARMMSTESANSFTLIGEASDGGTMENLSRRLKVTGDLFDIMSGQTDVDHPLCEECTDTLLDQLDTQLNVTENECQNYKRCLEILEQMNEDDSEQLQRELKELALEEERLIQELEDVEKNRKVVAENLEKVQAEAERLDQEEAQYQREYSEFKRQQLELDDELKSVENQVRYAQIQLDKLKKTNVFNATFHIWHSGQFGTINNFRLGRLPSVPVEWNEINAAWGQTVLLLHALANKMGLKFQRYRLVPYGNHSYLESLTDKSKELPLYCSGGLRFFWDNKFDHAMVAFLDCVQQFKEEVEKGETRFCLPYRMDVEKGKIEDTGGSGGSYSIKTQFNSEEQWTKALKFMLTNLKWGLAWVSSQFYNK
Sequence of class III PI3K (Q8CDJ3 whole entry partner): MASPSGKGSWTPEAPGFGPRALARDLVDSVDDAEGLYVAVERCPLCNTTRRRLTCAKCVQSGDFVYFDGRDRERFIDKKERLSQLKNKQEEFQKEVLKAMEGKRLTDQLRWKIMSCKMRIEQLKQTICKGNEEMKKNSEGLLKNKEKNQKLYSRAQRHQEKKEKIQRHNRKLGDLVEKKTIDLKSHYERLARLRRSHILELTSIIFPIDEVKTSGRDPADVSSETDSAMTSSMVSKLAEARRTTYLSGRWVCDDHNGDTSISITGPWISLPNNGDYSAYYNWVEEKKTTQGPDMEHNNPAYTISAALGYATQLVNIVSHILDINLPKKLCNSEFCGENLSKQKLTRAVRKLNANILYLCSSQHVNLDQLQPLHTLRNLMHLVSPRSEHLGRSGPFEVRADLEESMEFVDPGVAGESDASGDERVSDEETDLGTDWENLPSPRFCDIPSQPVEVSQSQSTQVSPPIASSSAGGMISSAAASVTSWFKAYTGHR

effect on IL-10 induction of EV-treated BMDCs (class III PI3K): efficiently blocked IL-10 induction
Structure (SMILES): Cn1cnc(N)c2ncnc1-2 [3-methyladenine]

Structure (SMILES): Nc1nc(NCCc2ccc(O)cc2)nc2nc(-c3ccco3)nn12 [ZM241385]
effect of A2a antagonist on ASF519-induced IL-10 producing DCs [1]: significantly decreased
effect of A2a blockage on ASF519-decreased B cells and CD11b+ CD45+ cells [1]: restored

Structure (SMILES): CCN(CCO)CCCC(C)Nc1ccnc2cc(Cl)ccc12 (stereo not shown) [hydroxychloroquine]
effect on IL-10 induction of EV-treated BMDCs [2]: efficiently blocked IL-10 induction
